Laboratory results reported in patent publication US12351559B2 (Biohaven Therapeutics Ltd., priority 2014, dated 2025).

What follows are molecules tested against T1, Kv7.2/7.3 (Homo sapiens, UniProt O43525+O43526) (assay: Kv7.2/7.3 activation assay, QPatch planar patch-clamp, single concentration screen). Details: Kv7.2/Kv7.3 co-expressing HEK cells, compound 3 μM, steady-state current at end of 2 s pulse to −30 mV.
T1 construct: host or cells: HEK cells, tetracycline-inducible expression
Assay type: cell-based
Set-up: key: <1.2-fold increase over baseline (−); +/−: as a range from <1.2-fold increase over baseline (−) up to >6-fold increase over baseline (+++); as a range from <1.2-fold increase over baseline (−) up to >6-fold increase over baseline (+++); as a range from <1.2-fold increase over baseline (−) up to >6-fold increase over baseline (+++); >6-fold increase over baseline (+++)
Description: The ability of compounds to potentiate K-currents in Kv7.2/7.3 containing HEK cells was assessed using planar patch-clamp on the QPatch automated screening platform.
Cell Line: The hKv7.2/7.3 cell line was obtained from Chantest (Cleveland, OH 44128) cat. #CT6147. These HEK cells will express the Kv7.2/7.3 ion channels when induced.
Cell Culture: Cells were maintained in a media containing DMEM/F12; 50/50 (GIBCO cat. #11330), 10% Fetal Bovine Serum (FBS) (GIBCO cat. #26140), 100 units/mL Penicillin-Streptomycin (GIBCO cat. #15140), 0.005 mg/mL Blasticidin (INVIVOGEN cat. #ant-bl-1), 0.5 mg/mL Geneticin (GIBCO cat. #10131), 0.1 mg/ml Zeocin (GIBCO cat. #R25001). Cells used in the electrophysiology assay were maintained in a media without Blasticidin, Geneticin and Zeocin for 2 days and channel expression was induced by adding tetracycline (BIOLINE cat. #BIO-87030) at a final concentration of 1 mg/mL. Cells were grown in T-175 flask to ˜75% confluency. Currents were recorded 24 hours after channel induction.
Compound Plates: Test compounds were prepared by performing serial dilutions on a Biomek NX^P (BECKMAN COULTER). Final dilutions were made in external recording solution with a final DMSO concentration of 0.1% DMSO. For single concentration screens each plate had 10 μM retigabine as a positive control and 0.1% DMSO as a negative control.
Electrophysiology: On the day of the experiment cells were washed with Hank's Balanced Salt Solution (HBBS) (GIBCO cat. #14175) and harvested with Tryple (GIBCO cat. #12604). Cells were then centrifuged at 2000 rpm for 5 minutes and resuspended in CHO-S-SFM (GIBCO cat. #12052) at ˜3×10^6 cells/mL. Cells were stirred for 30 minutes before experiments were started. External recording solution contained (in mM): NaCl (145), KCl (4), CaCl2 (2), MgCl2 (1), HEPES (10) and Glucose (10); pH was adjusted to 7.4 with NaOH and the osmolarity was adjusted to 300-305 mOsM with sucrose if necessary. Internal solution contained (in mM): KCl (125), KF (10), EGTA (5), Na2ATP (5), MgCl2 (3.2), HEPES (5); pH was adjusted to 7.2 with KOH and the osmolarity was adjusted to 298-302 mOsM with sucrose.
Potassium channel activity was measured on the QPatch HTX (Sophion Bioscience) using QPlates with 48-wells/plate. Each cell was taken as an independent experiment and only one compound was tested per well. Potassium channel activity was elicited by holding at −80 mV and stepping to −30 mV for 2 s followed by a 100 ms pulse to −120 mV.
Single concentration screen: Baseline conditions were obtained by recording 5 sweeps in the external solution only, this was repeated for three applications of the external solution. […] The steady-state current at the end of the 2 s pulse to −30 mV was measured to determine the fold increase from baseline.

Question: How did the “Kv7.2/7.3 Activity: increase in current over baseline” value (“Kv7.2/7.3 Activity: increase” for short) turn out when `CC(C)(C)CC(=O)Nc1nc2ccccc2n1C1CCC1` [Example 1, N-(1-cyclobutyl-1H-benzo[d]imidazol-2-yl)-3,3-dimethylbutanamide] was run?
Answer: +

Question: How did the “Kv7.2/7.3 Activity: increase” value turn out when `CC(C)(C)CC(=O)Nc1nc2ccccc2n1-c1ccccc1` [Example 2, 3,3-dimethyl-N-(1-phenyl-1H-benzo[d]imidazol-2-yl)butanamide] was run?
Answer: +

Question: For `COc1ccc2nc(NC(=O)CCC3CCCC3)n(C(C)C)c2c1` [Example 3, 3-cyclopentyl-N-(1-isopropyl-6-methoxy-1H-benzo[d]imidazol-2-yl)propanamide], which “Kv7.2/7.3 Activity: increase” value is on record?
Answer: +++ (>6-fold increase over baseline (+++))

Question: With `COc1ccc2nc(NC(=O)[C@@H](C)C(C)C)n(C(C)C)c2c1` [Example 4, (S)-N-(1-isopropyl-6-methoxy-1H-benzo[d]imidazol-2-yl)-2,3-dimethylbutanamide] as the molecule, how does the “Kv7.2/7.3 Activity: increase” value read?
Answer: +/−

Question: For `CC(C)(C)CC(=O)Nc1nc2ccc(C#N)cc2n1C1CCC1` [Example 5, N-(6-cyano-1-cyclobutyl-1H-benzo[d]imidazol-2-yl)-3,3-dimethylbutanamide], which “Kv7.2/7.3 Activity: increase” value is on record?
Answer: +++ (>6-fold increase over baseline (+++))

Question: `CC(C)[C@H](C)C(=O)Nc1nc2ccc(C#N)cc2n1C1CCC1` [Example 6, (S)-N-(6-cyano-1-cyclobutyl-1H-benzo[d]imidazol-2-yl)-2,3-dimethylbutanamide] was tested. Which “Kv7.2/7.3 Activity: increase” value did it give?
Answer: +

Question: `CC(C)(O)CC(=O)Nc1nc2ccc(C#N)cc2n1C1CCC1` [Example 8, N-(6-cyano-1-cyclobutyl-1H-benzo[d]imidazol-2-yl)-3-hydroxy-3-methylbutanamide] was tested. Which “Kv7.2/7.3 Activity: increase” value did it give?
Answer: +

Question: Which “Kv7.2/7.3 Activity: increase” value does the source give for `N#Cc1ccc2nc(NC(=O)C3CC(F)(F)C3)n(C3CCC3)c2c1` [Example 9, N-(6-cyano-1-cyclobutyl-1H-benzo[d]imidazol-2-yl)-3,3-difluorocyclobutane-1-carboxamide] here?
Answer: +

Question: For `N#Cc1ccc2nc(NC(=O)[C@@H]3C[C@@H]4CC[C@H]3C4)n(C3CCC3)c2c1` [Example 10, (1S,2R,4R)-N-(6-cyano-1-cyclobutyl-1H-benzo[d]imidazol-2-yl)bicyclo[2.2.1]heptane-2-carboxamide], which “Kv7.2/7.3 Activity: increase” value is on record?
Answer: +

Question: How did the “Kv7.2/7.3 Activity: increase” value turn out when `CC1(C)C[C@@H]1C(=O)Nc1nc2ccc(C#N)cc2n1C1CCC1` [Example 11, (S)-N-(6-cyano-1-cyclobutyl-1H-benzo[d]imidazol-2-yl)-2,2-dimethylcyclopropane-1-carboxamide] was run?
Answer: ++

Question: `COC(C)(C)CC(=O)Nc1nc2ccc(C#N)cc2n1C1CCC1` [Example 12, N-(6-cyano-1-cyclobutyl-1H-benzo[d]imidazol-2-yl)-3-methoxy-3-methylbutanamide] was tested. Which “Kv7.2/7.3 Activity: increase” value did it give?
Answer: +/−

Question: Which “Kv7.2/7.3 Activity: increase” value does the source give for `C[C@H](C(=O)Nc1nc2ccc(C#N)cc2n1C1CCC1)C(C)(C)O` [Example 13, (S)-N-(6-cyano-1-cyclobutyl-1H-benzo[d]imidazol-2-yl)-3-hydroxy-2,3-dimethylbutanamide] here?
Answer: +/−

Question: With `CC(C)[C@@H](C)C(=O)Nc1nc2ccc(C#N)cc2n1C1CCC1` [Example 14, (R)-N-(6-cyano-1-cyclobutyl-1H-benzo[d]imidazol-2-yl)-2,3-dimethylbutanamide] as the molecule, how does the “Kv7.2/7.3 Activity: increase” value read?
Answer: +/−

Question: With `CC(C)(O)[C@H]1C[C@@H]1C(=O)Nc1nc2ccc(C#N)cc2n1C1CCC1` [Example 15, (1S,2S)-N-(6-cyano-1-cyclobutyl-1H-benzo[d]imidazol-2-yl)-2-(2-hydroxypropan-2-yl)cyclopropane-1-carboxamide] as the molecule, how does the “Kv7.2/7.3 Activity: increase” value read?
Answer: +/−

Question: How did the “Kv7.2/7.3 Activity: increase” value turn out when `C[C@](O)(C(=O)Nc1nc2ccc(C#N)cc2n1C1CCC1)C(F)(F)F` [Example 16, (S)-N-(6-cyano-1-cyclobutyl-1H-benzo[d]imidazol-2-yl)-3,3,3-trifluoro-2-hydroxy-2-methylpropanamide] was run?
Answer: +/−
